As a reminder, the IC50 is the concentration at which inhibition is half-maximal. In general, Ki refers to the dissociation constant of the complex between target and ligand, obtained from inhibition or displacement.

Among the data in ChEMBL document CHEMBL5214951, “Isatoic anhydrides as novel inhibitors of monoamine oxidase” (Bioorg Med Chem, 2022) are IC50 and Ki values, retold here.

Test [1] deals with D-amino-acid oxidase (Sus scrofa, UniProt P00371). The test can be described thus: Inhibition of porcine kidney DAAO using D-serine as substrate by Amplex red and horseradish peroxidase fluorescence assay.
The target of test [2] is T1, Amine oxidase [flavin-containing] A (Homo sapiens, UniProt P21397).
T1 sequence (P21397 whole entry): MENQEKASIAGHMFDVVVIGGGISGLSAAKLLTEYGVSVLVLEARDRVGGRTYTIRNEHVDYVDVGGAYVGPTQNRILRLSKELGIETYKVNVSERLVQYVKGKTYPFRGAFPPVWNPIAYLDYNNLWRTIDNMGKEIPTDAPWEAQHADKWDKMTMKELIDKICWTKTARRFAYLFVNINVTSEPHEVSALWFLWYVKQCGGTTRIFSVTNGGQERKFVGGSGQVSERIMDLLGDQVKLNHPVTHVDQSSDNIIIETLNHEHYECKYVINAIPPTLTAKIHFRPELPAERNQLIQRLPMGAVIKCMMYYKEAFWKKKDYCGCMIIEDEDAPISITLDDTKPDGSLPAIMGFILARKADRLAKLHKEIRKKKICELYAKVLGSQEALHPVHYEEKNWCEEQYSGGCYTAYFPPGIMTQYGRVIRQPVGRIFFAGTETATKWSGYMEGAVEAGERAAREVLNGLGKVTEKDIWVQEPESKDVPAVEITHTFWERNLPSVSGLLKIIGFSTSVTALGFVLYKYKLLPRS

Test [3] has as its target T1, Amine oxidase [flavin-containing] A. In words: Competitive inhibition of human recombinant MAO-A assessed as inhibitory constant using varying levels of kynuramine as substrate by Lineweaver-burk plot analysis.
Test [4] addresses T2, Amine oxidase [flavin-containing] B (Homo sapiens, UniProt P27338).
T2 sequence (P27338 whole entry): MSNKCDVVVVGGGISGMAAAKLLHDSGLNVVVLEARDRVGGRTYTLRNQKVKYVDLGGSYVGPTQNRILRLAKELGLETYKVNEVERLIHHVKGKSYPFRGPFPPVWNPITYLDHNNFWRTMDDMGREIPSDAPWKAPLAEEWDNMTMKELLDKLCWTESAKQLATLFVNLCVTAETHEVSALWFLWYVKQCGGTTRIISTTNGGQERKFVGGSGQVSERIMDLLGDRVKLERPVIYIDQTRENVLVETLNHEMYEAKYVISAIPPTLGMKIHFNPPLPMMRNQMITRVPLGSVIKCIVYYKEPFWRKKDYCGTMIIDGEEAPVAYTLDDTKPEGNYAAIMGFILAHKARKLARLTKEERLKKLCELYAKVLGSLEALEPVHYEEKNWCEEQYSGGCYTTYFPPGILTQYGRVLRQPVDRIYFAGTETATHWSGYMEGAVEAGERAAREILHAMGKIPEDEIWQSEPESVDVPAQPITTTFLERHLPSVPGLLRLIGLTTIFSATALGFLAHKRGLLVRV

Test [5] concerns the target T2, Amine oxidase [flavin-containing] B. In words: Competitive inhibition of human recombinant MAO-B assessed as inhibitory constant using varying levels of kynuramine as substrate by Lineweaver-burk plot analysis.
The target of test [6] is Cholinesterase (Equus caballus, UniProt P81908).
Description: Inhibition of equine serum BuChE using S-butyrylthiocholine as substrate at by DTNB reagent based spectrophotometric analysis
In test [7] the target is Acetylcholinesterase (Homo sapiens, UniProt P22303). In words: Inhibition of human recombinant AChE using S-acetylthiocholine as substrate by DTNB reagent based spectrophotometric analysis.
Chain of Acetylcholinesterase (P22303 whole entry): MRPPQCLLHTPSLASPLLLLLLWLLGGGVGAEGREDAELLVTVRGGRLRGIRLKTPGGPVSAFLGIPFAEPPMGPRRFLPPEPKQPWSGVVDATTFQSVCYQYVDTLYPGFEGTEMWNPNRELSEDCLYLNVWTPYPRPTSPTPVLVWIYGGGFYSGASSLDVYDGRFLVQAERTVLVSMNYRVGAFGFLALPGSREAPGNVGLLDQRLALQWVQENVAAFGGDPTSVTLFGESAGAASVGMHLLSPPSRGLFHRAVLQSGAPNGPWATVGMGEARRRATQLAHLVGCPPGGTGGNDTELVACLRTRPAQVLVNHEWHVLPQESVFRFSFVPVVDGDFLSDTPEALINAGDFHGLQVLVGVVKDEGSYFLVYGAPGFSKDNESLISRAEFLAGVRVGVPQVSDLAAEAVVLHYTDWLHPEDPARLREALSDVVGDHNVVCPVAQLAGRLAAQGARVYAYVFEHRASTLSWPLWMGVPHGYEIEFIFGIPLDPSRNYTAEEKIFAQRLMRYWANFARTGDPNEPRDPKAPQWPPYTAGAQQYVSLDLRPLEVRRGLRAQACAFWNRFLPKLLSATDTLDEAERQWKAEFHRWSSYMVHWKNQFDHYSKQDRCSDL

Chain of Cholinesterase (P81908 whole entry): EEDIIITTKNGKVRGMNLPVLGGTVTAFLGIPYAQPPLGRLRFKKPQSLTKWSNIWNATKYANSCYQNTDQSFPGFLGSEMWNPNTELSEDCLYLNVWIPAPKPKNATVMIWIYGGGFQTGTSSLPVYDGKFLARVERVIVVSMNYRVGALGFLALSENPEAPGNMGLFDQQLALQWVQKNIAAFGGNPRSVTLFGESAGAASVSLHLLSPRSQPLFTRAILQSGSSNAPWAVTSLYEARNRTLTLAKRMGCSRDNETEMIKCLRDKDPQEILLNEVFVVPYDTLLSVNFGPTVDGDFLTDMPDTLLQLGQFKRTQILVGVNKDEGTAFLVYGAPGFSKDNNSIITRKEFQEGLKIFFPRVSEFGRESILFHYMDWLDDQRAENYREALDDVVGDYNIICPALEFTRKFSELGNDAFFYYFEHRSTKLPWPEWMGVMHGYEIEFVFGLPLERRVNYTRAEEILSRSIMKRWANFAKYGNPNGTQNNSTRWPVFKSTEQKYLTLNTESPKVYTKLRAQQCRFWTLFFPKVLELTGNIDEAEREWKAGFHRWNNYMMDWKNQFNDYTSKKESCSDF
Chain of D-amino-acid oxidase (P00371 whole entry): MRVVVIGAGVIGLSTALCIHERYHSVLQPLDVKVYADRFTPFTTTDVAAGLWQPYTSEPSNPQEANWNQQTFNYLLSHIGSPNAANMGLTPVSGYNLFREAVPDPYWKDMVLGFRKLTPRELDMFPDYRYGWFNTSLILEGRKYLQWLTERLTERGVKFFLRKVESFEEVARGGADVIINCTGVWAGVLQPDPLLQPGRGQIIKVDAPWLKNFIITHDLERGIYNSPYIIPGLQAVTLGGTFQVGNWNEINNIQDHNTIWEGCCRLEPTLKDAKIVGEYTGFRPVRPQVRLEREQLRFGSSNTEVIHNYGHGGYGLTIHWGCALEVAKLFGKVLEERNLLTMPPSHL

With `Cc1cc(C(=O)O)n[nH]1`, half-maximal inhibition in test [1] (IC50) was put at 933 nM.

Take `O=c1[nH]c2ccc(OCc3ccccc3)cc2c(=O)o1`: the IC50 was 132 nM in test [2] and 73 nM in test [4]. Further, the inhibition constant (Ki) in test [3] turned out to be 52 nM; in test [5], 4.3 nM.

Consider `O=c1[nH]c2ccc(OCc3ccc4ccccc4c3)cc2c(=O)o1`, for which the IC50 was determined as 16600 nM in test [6], 65 nM in test [2] and 20 nM in test [4].

In the case of `O=c1[nH]c2ccc(OCc3ccc(Br)cc3)cc2c(=O)o1`, the figures for the half-inhibitory concentration (IC50) in test [6], in test [2] and in test [4] were 19800 nM, 9.5 nM and 6.9 nM, respectively.

Consider `O=c1[nH]c2ccc(OCc3ccc(F)cc3)cc2c(=O)o1`, for which the IC50 came to 76200 nM in test [7], 122 nM in test [2] and 15 nM in test [4].

In the case of `COc1cccc(COc2ccc3[nH]c(=O)oc(=O)c3c2)c1`, the IC50 came to 94 nM in test [2] and 18 nM in test [4].

Turning to `CC(C)c1ccc(COc2ccc3[nH]c(=O)oc(=O)c3c2)cc1`, the half-inhibitory concentration (IC50) in test [6] worked out at 21100 nM; in test [7], 55000 nM; in test [2] it was 10 nM; in test [4], 76 nM.

With `O=c1[nH]c2ccc(OCc3cccc(Br)c3)cc2c(=O)o1`, the IC50 in test [2] was 59 nM; in test [4], 11 nM.

For the compound `Cc1ccc(COc2ccc3[nH]c(=O)oc(=O)c3c2)cc1`, the 50% inhibitory concentration (IC50) in test [6] was determined as 19100 nM; in test [2] it was 61 nM; in test [4] it was 6.4 nM.

In the case of `O=c1[nH]c2ccc(OCc3cccc(I)c3)cc2c(=O)o1`, the half-maximal inhibitory concentration (IC50) amounted to 43 nM in test [2] and 14 nM in test [4].

Turning to `O=c1[nH]c2ccc(OCc3cccc(C(F)(F)F)c3)cc2c(=O)o1`, the values for the 50% inhibitory concentration (IC50) in test [2] and in test [4] were 83 nM and 4.7 nM, respectively.

`COc1cc(/C=C/C(=O)CC(=O)/C=C/c2ccc(O)c(OC)c2)ccc1O` [CURCUMIN] returned an IC50 in test [1] of 1070 nM.
